{"source": "patent US8518912B2", "about": "“Phosphonic acid derivates and their use as P2Y12 receptor antagonists” (Actelion Pharmaceuticals Ltd., priority 2008, dated 2013)", "data": [{"target": "T1, human P2Y12 receptor (Homo sapiens, UniProt Q9H244)", "T1 construct": "expressed in transfected cells; host or cells: Chinese Hamster Ovary (CHO) cells", "T1 sequence (Q9H244 whole entry)": "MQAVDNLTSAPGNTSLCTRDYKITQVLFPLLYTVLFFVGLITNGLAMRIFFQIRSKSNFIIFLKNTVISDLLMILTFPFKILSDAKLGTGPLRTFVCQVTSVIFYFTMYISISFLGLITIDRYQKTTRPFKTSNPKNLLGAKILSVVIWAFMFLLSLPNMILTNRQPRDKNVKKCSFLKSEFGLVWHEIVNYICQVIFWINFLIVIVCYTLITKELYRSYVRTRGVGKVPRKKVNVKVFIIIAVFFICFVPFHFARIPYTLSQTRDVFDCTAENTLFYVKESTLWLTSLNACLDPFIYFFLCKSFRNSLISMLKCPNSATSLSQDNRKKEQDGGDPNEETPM", "assay": "P2Y12 receptor binding assay", "settings": "CHO cells with recombinant human P2Y12 receptor; tritium-labeled 2-methyl-S-ADP; 2 hours at RT", "protocol": "Chinese Hamster Ovary (CHO) cells with recombinant expression of the human P2Y12 receptor were cultured in 24 well cell-culture plates. Cells were washed three times with binding buffer (50 mM Tris pH 7.4, 100 mM NaCl, […], 0.5% BSA). The cells were then incubated with 0.5 ml per well binding buffer containing tritium-labeled 2-methyl-thio-adenosine 5′-diphosphate (2-methyl-S-ADP) (between 100,000 and 300,000 dpm per well) and various concentrations of test compounds. After incubation at RT for 2 hours, cells were washed three times with binding buffer. Then, cells were solubilized by addition of 0.5 ml solubilization buffer (SDS, NaOH, EDTA). The content of each well was then transferred into beta-counter vials and 2.0 ml of Ultima Gold Scintillation liquid was added.", "units": {"IC50": "nM"}, "values": [{"molecule": "CCCCOC(=O)N1CCN(C(=O)[C@H](CP(=O)(N[C@@H](Cc2ccccc2)C(=O)OC)N[C@@H](Cc2ccccc2)C(=O)OC)NC(=O)c2cc(N3CC[C@H](OC)C3)nc(-c3ccccc3)n2)CC1", "note": "[Example 87, N,N′-Bis-((S)-1-methoxycarbonyl-2-phenyl-ethyl)-2-{(R)-[6-((S)-3-methoxy-pyrrolidin-1-yl)-2-phenyl-pyrimidine-4-carbonyl]-amino}-3-oxo-3-(4-butoxy-carbonyl-piperazin-1-yl)-propyl-phosphonic acid diamide]", "IC50": 11}, {"molecule": "CCCCOC(=O)N1CCN(C(=O)[C@H](CCP(=O)(O)O)NC(=O)c2cc(N3CCOCC3)nc(-c3ccccc3)n2)CC1", "note": "[Example 12, 4-{(S)-2-[(6-morpholin-4-yl-2-phenyl-pyrimidine-4-carbonyl)-amino]-4-phosphono-butyryl}-piperazine-1-carboxylic acid butyl ester]", "IC50": 5.9}, {"molecule": "CCCCOC(=O)N1CCN(C(=O)[C@H](CP2(=O)OCCCO2)NC(=O)c2cc(N3CC[C@H](OC)C3)nc(-c3ccccc3)n2)CC1", "note": "[Example 109, 4-[(R)-2-{[6-((S)-3-Methoxy-pyrrolidin-1-yl)-2-phenyl-pyrimidine-4-carbonyl]-amino}-3-(2-oxo-2λ^5-[1,3,2]dioxaphosphinan-2-yl)-propionyl]piperazine-1-carboxylic acid butyl ester]", "IC50": 208}, {"molecule": "CCCCOC(=O)N1CCN(C(=O)[C@H](CP(=O)(O)O)NC(=O)c2cc(C3CC3)nc(-c3ccccc3)n2)CC1", "note": "[Example 35, 4-{(R)-2-[(6-cyclopropyl-2-phenyl-pyrimidine-4-carbonyl)-amino]-3-phosphono-propionyl}-piperazine-1-carboxylic acid butyl ester]", "IC50": 14}, {"molecule": "CCCCOC(=O)N1CCN(C(=O)[C@H](CCP(=O)(OCOC(=O)C(C)(C)C)OCOC(=O)C(C)(C)C)NC(=O)c2cc(N3CC[C@H](OC)C3)nc(-c3ccccc3)n2)CC1", "note": "[Example 48, 4-((S)-4-[bis-(2,2-dimethyl-propionyloxymethoxy)-phosphoryl]-2-{[6-((S)-3-methoxy-pyrrolidin-1-yl)-2-phenyl-pyrimidine-4-carbonyl]-amino}-butyryl)-piperazine-1-carboxylic acid butyl ester]", "IC50": 49}, {"molecule": "CCCC(=O)OCOP(=O)(OCOC(=O)CCC)c1ccc(C[C@H](NC(=O)c2cc(N3CC[C@H](OC)C3)nc(-c3ccccc3)n2)C(=O)N2CCN(C(=O)OCC)CC2)cc1", "note": "[Example 124, 4-((S)-3-[4-(Bis-(butyryloxy-methoxy)-phosphoryl)-phenyl]-2-{[6-((S)-3-methoxy-pyrrolidin-1-yl)-2-phenyl-pyrimidine-4-carbonyl]-amino}-propionyl)-piperazine-1-carboxylic acid ethyl ester]", "IC50": 36}, {"molecule": "CCCCOC(=O)N1CCN(C(=O)[C@H](CCP(=O)(O)O)NC(=O)c2cc(-n3cccn3)nc(-c3ccccc3)n2)CC1", "note": "[Example 7, 4-{(S)-2-[(2-phenyl-6-pyrazol-1-yl-pyrimidine-4-carbonyl)-amino]-4-phosphono-butyryl}-piperazine-1-carboxylic acid butyl ester]", "IC50": 3.2}, {"molecule": "CCCCOC(=O)N1CCN(C(=O)C(NC(=O)c2cc(N3CC[C@H](OC)C3)nc(-c3ccccc3)n2)P(=O)(O)O)CC1", "note": "(stereo partly drawn) [Example 56, 4-(2-{[6-((S)-3-methoxy-pyrrolidin-1-yl)-2-phenyl-pyrimidine-4-carbonyl]-amino}-2-phosphono-acetyl)-piperazine-1-carboxylic acid butyl ester]", "IC50": 162}, {"molecule": "CCCCOC(=O)N1CCN(C(=O)[C@H](CP2(=O)OCc3cccc(C)c3O2)NC(=O)c2cc(N3CC[C@H](OC)C3)nc(-c3ccccc3)n2)CC1", "note": "(mixture of isomers) [Example 110, 4-[(R)-2-{[6-((S)-3-Methoxy-pyrrolidin-1-yl)-2-phenyl-pyrimidine-4-carbonyl]-amino}-3-(8-methyl-2-oxo-4H-2λ^5-benzo[1,3,2]dioxaphosphinin-2-yl)-propionyl]-piperazine-1-carboxylic acid butyl ester]", "IC50": 2.8}, {"molecule": "CCOC(=O)N1CCN(C(=O)[C@H](Cc2ccc(CP(=O)(O)O)cc2)NC(=O)c2cc(N3CC[C@H](OC)C3)nc(-c3ccccc3)n2)CC1", "note": "[Example 61, 4-[(S)-2-{[6-((S)-3-Methoxy-pyrrolidin-1-yl)-2-phenyl-pyrimidine-4-carbonyl]-amino}-3-(4-phosphonomethyl-phenyl)-propionyl]-piperazine-1-carboxylic acid ethyl ester]", "IC50": 7.5}, {"molecule": "CCCCOC(=O)N1CCN(C(=O)[C@H](CP(=O)(O)OCOC(C)=O)NC(=O)c2cc(N3CC[C@H](OC)C3)nc(-c3ccccc3)n2)CC1", "note": "(mixture of isomers) [Example 115, 4-((R)-3-(Acetoxymethoxy-hydroxy-phosphoryl)-2-{[6-((S)-3-methoxy-pyrrolidin-1-yl)-2-phenyl-pyrimidine-4-carbonyl]-amino}-propionyl)-piperazine-1-carboxylic acid butyl ester]", "IC50": 5}, {"molecule": "CCCCOC(=O)N1CCN(C(=O)[C@H](CP(=O)(N[C@@H](C)C(=O)OC)N[C@@H](C)C(=O)OC)NC(=O)c2cc(N3CC[C@H](OC)C3)nc(-c3ccccc3)n2)CC1", "note": "[Example 89, N,N′-Bis-((S)-1-methoxycarbonyl-ethyl)-2-{(R)-[6-((S)-3-methoxy-pyrrolidin-1-yl)-2-phenyl-pyrimidine-4-carbonyl]-amino}-3-oxo-3-(4-butoxy-carbonyl-piperazin-1-yl)-propyl-phosphonic acid diamide]", "IC50": 162}, {"molecule": "CCCCOC(=O)N1CCN(C(=O)[C@H](CCP(=O)(O)O)NC(=O)c2cc(N3CC[C@H](OC)C3)nc(-c3cccc(F)c3)n2)CC1", "note": "[Example 21, 4-((S)-2-{[2-(3-fluoro-phenyl)-6-((S)-3-methoxy-pyrrolidin-1-yl)-pyrimidine-4-carbonyl]-amino}-4-phosphono-butyryl)-piperazine-1-carboxylic acid butyl ester]", "IC50": 78}, {"molecule": "CCCCOC(=O)N1CCN(C(=O)[C@H](CP(=O)(OCc2oc(=O)oc2C)OCc2oc(=O)oc2C)NC(=O)c2cc(N3CC[C@H](OC)C3)nc(-c3ccccc3)n2)CC1", "note": "[Example 101, 4-((R)-3-[Bis-(5-methyl-2-oxo-[1,3]dioxol-4-ylmethoxy)-phosphoryl]-2-{[6-((S)-3-methoxy-pyrrolidin-1-yl)-2-phenyl-pyrimidine-4-carbonyl]-amino}-propionyl)-piperazine-1-carboxylic acid butyl ester]", "IC50": 3.2}, {"molecule": "CCCCOC(=O)N1CCN(C(=O)[C@H](CCP(=O)(NCC(=O)OCC)NCC(=O)OCC)NC(=O)c2cc(N3CC[C@H](OC)C3)nc(-c3ccccc3)n2)CC1", "note": "[Example 75, N,N′-Bis-(ethoxycarbonylmethyl)-3-{(S)-[6-((S)-3-methoxy-pyrrolidin-1-yl)-2-phenyl-pyrimidine-4-carbonyl]-amino}-4-oxo-4-(4-butoxy-carbonyl-piperazin-1-yl)-butyl-phosphonic acid diamide]", "IC50": 308}, {"molecule": "CCCCOC(=O)N1CCN(C(=O)[C@H](CP(=O)(O)O)NC(=O)c2cc(N3CCN(C)CC3)nc(-c3ccccc3)n2)CC1", "note": "[Example 73, 4-((R)-2-{[6-(4-Methyl-piperazin-1-yl)-2-phenyl-pyrimidine-4-carbonyl]-amino}-3-phosphono-propionyl)-piperazine-1-carboxylic acid butyl ester]", "IC50": 3}]}]}
